Measured values reported in article PMC7312386, “The Effect of Substituted Benzene-Sulfonamides and Clinically Licensed Drugs on the Catalytic Activity of CynT2, a Carbonic Anhydrase Crucial for Escherichia coli Life Cycle” (International Journal of Molecular Sciences, 2020).

These compounds were tested against T1, CynT2 (Escherichia coli, UniProt P61517) (assay: stopped-flow CO2 hydrase assay, phenol red). Conditions: not given.
T1 construct: gene can; oligomer not determined (dimer or tetramer stated for bacterial beta-CAs in general)
Assay type: biochemical

T1 sequence (P61517 whole entry): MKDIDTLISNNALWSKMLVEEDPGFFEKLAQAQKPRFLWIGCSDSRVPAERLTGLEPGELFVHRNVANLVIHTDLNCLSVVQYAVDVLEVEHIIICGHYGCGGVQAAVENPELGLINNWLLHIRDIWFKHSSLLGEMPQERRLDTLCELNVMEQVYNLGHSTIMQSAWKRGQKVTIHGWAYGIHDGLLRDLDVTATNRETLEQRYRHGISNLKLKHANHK

SMILES	Ki [nM]
NCCc1ccc(S(N)(=O)=O)cc1 [compound 6, 6]	3320

Same assay, conditions: read-out: KI *(nM) / CynT2

SMILES	Ki [nM]
Nc1ccc(S(=O)(=O)NCCc2ccc(S(N)(=O)=O)cc2)cc1 [compound 24, 24]	82
Nc1nnc(S(N)(=O)=O)s1 [compound 13, 13]	4120
Nc1ccc(S(N)(=O)=O)cc1Cl [compound 8, 8]	> 10000
NS(=O)(=O)c1ccc(CO)cc1 [compound 16, 16]	2340
O=C1NS(=O)(=O)c2ccccc21 [SAC, Saccharin]	6690
NS(=O)(=O)c1ccc(CCO)cc1 [compound 17, 17]	502
NCc1ccc(S(N)(=O)=O)cc1 [compound 5, 5]	2840
Cc1onc(-c2ccccc2)c1-c1ccc(S(N)(=O)=O)cc1 [VLX, Valdecoxib]	2750
Cn1nc(S(N)(=O)=O)sc1=N [compound 14, 14]	440
NS(=O)(=O)c1cc(Cl)c(Cl)c(S(N)(=O)=O)c1 [DCP, Dichlorophenamide]	> 10000
Nc1cccc(S(N)(=O)=O)c1 [compound 1, 1]	705
NS(=O)(=O)c1cc(Cl)cc(Cl)c1O [compound 10, 10]	8560
Nc1cc(Cl)c(S(N)(=O)=O)cc1S(N)(=O)=O [compound 12, 12]	4390
Nc1ccc(S(=O)(=O)NCc2ccc(S(N)(=O)=O)cc2)cc1 [compound 23, 23]	322
CCN1CCCC1CNC(=O)c1cc(S(N)(=O)=O)ccc1OC (centres unmarked) [SLP, Sulpiride]	97
NS(=O)(=O)c1cccc(S(N)(=O)=O)c1 [compound 3, 3]	457
CC(=O)N=c1sc(S(N)(=O)=O)nn1C [MZA, Methazolamide]	480
Nc1ccc(S(=O)(=O)Nc2ccc(S(N)(=O)=O)cc2)cc1 [compound 22, 22]	93
CCN[C@H]1CN(CCCOC)S(=O)(=O)c2sc(S(N)(=O)=O)cc21 [BRZ, Brinzolamide]	2050

SMILES	Ki [nM]
Cc1ccc(-c2cc(C(F)(F)F)nn2-c2ccc(S(N)(=O)=O)cc2)cc1 [CLX, Celecoxib]	1890
Nc1ccc(S(=O)(=O)Nc2nnc(S(N)(=O)=O)s2)cc1 [compound 20, 20]	726
Nc1ccc(S(N)(=O)=O)cc1F [compound 7, 7]	> 10000
NS(=O)(=O)Cc1noc2ccccc12 [ZNS, Zonisamide]	3190
Nc1nccc(Nc2ccc(S(N)(=O)=O)cc2)n1 [compound 19, 19]	416
NC(N)=Nc1nc(CSCCC(N)=NS(N)(=O)=O)cs1 [FAM, Famotidine]	2770
NS(=O)(=O)c1cc2c(cc1Cl)NCNS2(=O)=O [HCT, Hydrochlorothiazide]	5010
CC1(C)O[C@@H]2[C@@H](CO[C@@]3(COS(N)(=O)=O)OC(C)(C)O[C@@H]23)O1 [TPM, Topiramate]	3360
Nc1ccc(S(N)(=O)=O)cc1Br [compound 9, 9]	2710
NS(=O)(=O)NCCNc1nonc1C(=NO)Nc1ccc(F)c(Br)c1 [EPA, Epacadostat]	2560
NS(=O)(=O)c1ccc(O)cc1 [compound 15, 15]	6440
Nc1ccc(S(N)(=O)=O)cc1 [compound 2, 2]	790
NS(=O)(=O)c1ccc(N2CCCCS2(=O)=O)cc1 [SLT, Sulthiame]	285
NS(=O)(=O)c1ccc(C(=O)O)cc1 [compound 18, 18]	205
Cc1ccc(S(N)(=O)=O)cc1 [compound 4, 4]	3010
NS(=O)(=O)c1ccc(S(=O)(=O)Nc2cccc3c(Cl)c[nH]c23)cc1 [IND, Indisulam]	2390
Nc1cc(C(F)(F)F)c(S(N)(=O)=O)cc1S(N)(=O)=O [compound 11, 11]	6250
NS(=O)(=O)c1nnc(NS(=O)(=O)c2ccccc2)s1 [BZA, Benzolamide]	276
